Earlier results in patent US7645466B2, “Methods for deriving, isolating, and/or extracting amino acid compositions from Fenugreek seed” (TSI Group Limited, priority 2004, dated 2010).

Test system: pancreatic beta cell
Conditions: micromolar concentrations; direct effect on pancreatic beta cell, glucose dependent

## C[C@@H]([C@H](C)O)[C@H](N)C(=O)O [4-hydroxyisoleucine]
  glucose-induced insulin secretion: stimulate glucose-induced insulin secretion in micromolar concentrations
